# Reference: ChEMBL document CHEMBL1201862, “PubChem BioAssay data set” (2004)
#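 Exposure lasted 48 hours, with cells grown in 96-well plates and compounds tested at five concentrations. The concentration for 50% growth inhibition is given as GI50.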 Activity calls are given as the source filed them. Cut-off read from the data, not from the text of the source: active = GI50 up to about 1.1 µM and inactive = higher.
# Experiments:
# Assay in all cases: inhibition of tumour cell growth, NCI panel, 48 h
# [1] = system: 786-0
# [2] = system: A498
# [3] = system: A549
# [4] = system: ACHN
# [5] = system: CAKI-1
# [6] = system: CCRF-CEM
# [7] = system: COLO 205
# [8] = system: DLD-1
# [9] = system: DMS-114
# [10] = system: DMS-273
# [11] = system: EKVX
# [12] = system: HCC 2998
# [13] = system: HCT-116
# [14] = system: HCT-15
# [15] = system: HL-60
# [16] = system: HOP-18
# [17] = system: HOP-62
# [18] = system: HT-29
# [19] = system: IGROV-1
# [20] = system: K562
# [21] = system: KM-20L2
# [22] = system: KM12
# [23] = system: LOX IMVI
# [24] = system: LXFL 529
# [25] = system: M14
# [26] = system: M19-MEL
# [27] = system: MOLT-4
# [28] = system: Malme-3M
# [29] = system: NCI-H226
# [30] = system: NCI-H23
# [31] = system: NCI-H460
# [32] = system: NCI-H522
# [33] = system: OVCAR-4
# [34] = system: OVCAR-5
# [35] = system: OVCAR-8
# [36] = system: RPMI-8226
# [37] = system: RXF 393
# [38] = system: SF-268
# [39] = system: SF-295
# [40] = system: SF-539
# [41] = system: SK-MEL-28
# [42] = system: SK-MEL-2
# [43] = system: SK-MEL-5
# [44] = system: SK-OV-3
# [45] = system: SN12C
# [46] = system: SNB-19
# [47] = system: SNB-75
# [48] = system: SNB-78
# [49] = system: SW-620
# [50] = system: TK-10
# [51] = system: U-251
# [52] = system: UACC-257
# [53] = system: UACC-62
# [54] = system: UO-31
# [55] = system: XF498
compound,measurement,setting,value
COC(=O)/C=C(\C)CCC1SC1(C)C (stereo not given),GI50,[1],> 100 µM (inactive)
same,GI50,[2],> 100 µM (inactive)
same,GI50,[3],> 100 µM (inactive)
same,GI50,[4],> 100 µM (inactive)
same,GI50,[5],> 100 µM (inactive)
same,GI50,[6],> 100 µM (inactive)
same,GI50,[7],> 100 µM (inactive)
same,GI50,[8],> 100 µM (inactive)
same,GI50,[9],91.8 µM (inactive)
same,GI50,[10],> 100 µM (inactive)
same,GI50,[11],> 100 µM (inactive)
same,GI50,[12],> 100 µM (inactive)
same,GI50,[13],> 100 µM (inactive)
same,GI50,[14],> 100 µM
same,GI50,[15],> 100 µM (inactive)
same,GI50,[16],> 100 µM (inactive)
same,GI50,[17],> 100 µM (inactive)
same,GI50,[18],> 100 µM (inactive)
same,GI50,[19],> 100 µM (inactive)
same,GI50,[20],> 100 µM (inactive)
same,GI50,[21],> 100 µM (inactive)
same,GI50,[22],> 100 µM (inactive)
same,GI50,[23],> 100 µM (inactive)
same,GI50,[24],> 100 µM (inactive)
same,GI50,[25],> 100 µM (inactive)
same,GI50,[26],> 100 µM (inactive)
same,GI50,[27],> 100 µM (inactive)
same,GI50,[28],> 100 µM (inactive)
same,GI50,[29],> 100 µM (inactive)
same,GI50,[30],> 100 µM (inactive)
same,GI50,[31],> 100 µM (inactive)
same,GI50,[32],> 100 µM (inactive)
same,GI50,[33],> 100 µM (inactive)
same,GI50,[34],> 100 µM (inactive)
same,GI50,[35],> 100 µM (inactive)
same,GI50,[36],> 100 µM (inactive)
same,GI50,[37],> 100 µM (inactive)
same,GI50,[38],> 100 µM (inactive)
same,GI50,[39],> 100 µM (inactive)
same,GI50,[40],> 100 µM (inactive)
same,GI50,[41],> 100 µM (inactive)
same,GI50,[42],> 100 µM (inactive)
same,GI50,[43],> 100 µM (inactive)
same,GI50,[44],> 100 µM (inactive)
same,GI50,[45],> 100 µM (inactive)
same,GI50,[46],> 100 µM (inactive)
same,GI50,[47],> 100 µM (inactive)
same,GI50,[48],> 100 µM (inactive)
same,GI50,[49],77.3 µM (inactive)
same,GI50,[50],> 100 µM (inactive)
same,GI50,[51],> 100 µM (inactive)
same,GI50,[52],> 100 µM (inactive)
same,GI50,[53],> 100 µM (inactive)
same,GI50,[54],> 100 µM (inactive)
same,GI50,[55],> 100 µM (inactive)
